{"source": "patent US20140038836A1", "about": "“Novel Pharmacogene Single Nucleotide Polymorphisms and Methods of Detecting Same” (priority 2012, published 2014)", "origin": "cited, not measured here", "key": {"[1]": {"target": "T1, ADRA2A (alpha2A subtype alpha-2-adrenergic receptor) (Homo sapiens, UniProt P08913)", "T1 sequence (P08913 1-465)": "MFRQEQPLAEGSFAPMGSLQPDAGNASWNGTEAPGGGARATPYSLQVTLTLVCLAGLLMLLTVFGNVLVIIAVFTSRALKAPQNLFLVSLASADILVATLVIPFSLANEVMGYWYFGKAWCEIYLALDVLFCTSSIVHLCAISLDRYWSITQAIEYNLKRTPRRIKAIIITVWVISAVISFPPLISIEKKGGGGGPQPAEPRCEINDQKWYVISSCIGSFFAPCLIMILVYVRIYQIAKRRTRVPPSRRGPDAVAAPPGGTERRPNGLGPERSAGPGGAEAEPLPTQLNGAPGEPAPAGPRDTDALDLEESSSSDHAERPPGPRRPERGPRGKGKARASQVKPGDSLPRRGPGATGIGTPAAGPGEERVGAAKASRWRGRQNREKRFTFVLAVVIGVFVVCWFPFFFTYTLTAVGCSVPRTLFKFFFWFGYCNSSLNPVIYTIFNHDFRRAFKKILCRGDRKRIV", "conditions": "for rank order for antagonists: antagonists of the alpha2A receptor; for rank order of potency for agonists: agonists of the alpha2A receptor"}, "[2]": {"tested_on": "P-gp"}, "[3]": {"tested_on": "psychotic Caucasian patients", "conditions": "3435CC or 2677GG genotypes versus heterozygous or TT carriers"}, "[4]": {"conditions": "homozygote ABCB1 3435TT carriers"}, "[5]": {"tested_on": "patients of Asian ethnicity with Major Depressive Disorder", "conditions": "carriers of 3435TT (rs1045642) genotype, p=0.001"}, "[6]": {"tested_on": "Caucasian patients with major depression", "conditions": "ABCB1 3435TT allele; P=0.042, 95% CI 1.01-1.86"}, "[7]": {"tested_on": "patients with schizophrenia", "conditions": "(T) allele of rs3813929"}, "[8]": {"tested_on": "Japanese major depression sample", "conditions": "3435TT genotype (p=0.0008), haplotype block 3435C-2677G-1236T, 6 weeks"}, "[9]": {"tested_on": "schizophrenic Chinese patients from Shanghai", "conditions": "230-bp allele of (GT)n repeat or 230-bp/C-270/rs6265G haplotype versus other alleles or haplotypes"}, "[10]": {"tested_on": "patients diagnosed with generalized anxiety disorder", "conditions": "carriers of HTR2A rs7997012 G-allele"}}, "note": "Where two headings read alike, the source gives them in different places."}
{"smiles": "C=CCc1ccccc1OCC(O)CNC(C)C", "note": "(stereo not shown) [alprenolol]", "values": [{"measurement": "rank order for antagonists", "setting": "[1]", "result": "yohimbine>phentolamine=mianserine>chlorpromazine=spiperone=prazosin>propanolol>alprenolol=pindolol"}]}
{"smiles": "CN(C)CCC=C1c2ccccc2CCc2ccccc21", "note": "[amitriptyline]", "values": [{"measurement": "P-gp substrate property", "setting": "[2]", "result": "substrates of P-gp"}]}
{"smiles": "CN(C)CCCN1c2ccccc2Sc2ccc(Cl)cc21", "note": "[chlorpromazine]", "values": [{"measurement": "rank order for antagonists", "setting": "[1]", "result": "yohimbine>phentolamine=mianserine>chlorpromazine=spiperone=prazosin>propanolol>alprenolol=pindolol"}]}
{"smiles": "CN(C)CCCC1(c2ccc(F)cc2)OCc2cc(C#N)ccc21", "note": "(stereo not shown) [citalopram]", "values": [{"measurement": "P-gp substrate property", "setting": "[2]", "result": "substrates of P-gp"}]}
{"smiles": "Clc1cccc(Cl)c1N=C1NCCN1", "note": "[clonidine]", "values": [{"measurement": "rank order of potency for agonists", "setting": "[1]", "result": "oxymetazoline>clonidine>epinephrine>norepinephrine>phenylephrine>dopamine>p-synephrine>p-tyramine>serotonin=p-octopamine"}]}
{"smiles": "CN1CCN(C2=Nc3cc(Cl)ccc3Nc3ccccc32)CC1", "note": "[clozapine]", "values": [{"measurement": "dose-normalized clozapine levels", "setting": "[3]", "result": "significantly lower"}]}
{"smiles": "C[C@H]1O[C@@H](O[C@H]2[C@@H](O)C[C@H](O[C@H]3[C@@H](O)C[C@H](O[C@H]4CC[C@@]5(C)[C@H](CC[C@@H]6[C@@H]5C[C@@H](O)[C@]5(C)[C@@H](C7=CC(=O)OC7)CC[C@]65O)C4)O[C@@H]3C)O[C@@H]2C)C[C@H](O)[C@@H]1O", "note": "[digoxin]", "values": [{"measurement": "digoxin plasma levels after oral administration", "setting": "[4]", "result": "increased"}]}
{"smiles": "CNC[C@H](O)c1ccc(O)c(O)c1", "note": "[epinephrine]", "values": [{"measurement": "rank order of potency for agonists", "setting": "[1]", "result": "oxymetazoline>clonidine>epinephrine>norepinephrine>phenylephrine>dopamine>p-synephrine>p-tyramine>serotonin=p-octopamine"}]}
{"smiles": "CN(C)CCC[C@@]1(c2ccc(F)cc2)OCc2cc(C#N)ccc21", "note": "[escitalopram]", "values": [{"measurement": "remission on the antidepressant", "setting": "[5]", "result": "slower remission"}]}
{"smiles": "CN1CCN2c3ccccc3Cc3ccccc3C2C1", "note": "(stereo not shown) [mianserine]", "values": [{"measurement": "rank order for antagonists", "setting": "[1]", "result": "yohimbine>phentolamine=mianserine>chlorpromazine=spiperone=prazosin>propanolol>alprenolol=pindolol"}]}
{"smiles": "CN1CCN2c3ncccc3Cc3ccccc3C2C1", "note": "(stereo not shown) [mirtazapine]", "values": [{"measurement": "P-gp substrate property", "setting": "[2]", "result": "not substrates of P-gp"}]}
{"smiles": "NC[C@H](O)c1ccc(O)c(O)c1", "note": "[norepinephrine]", "values": [{"measurement": "rank order of potency for agonists", "setting": "[1]", "result": "oxymetazoline>clonidine>epinephrine>norepinephrine>phenylephrine>dopamine>p-synephrine>p-tyramine>serotonin=p-octopamine"}]}
{"smiles": "CNCCC=C1c2ccccc2CCc2ccccc21", "note": "[nortriptyline]", "values": [{"measurement": "OR for nortriptyline-induced postural hypotension", "setting": "[6]", "result": 1.37}]}
{"smiles": "Cc1cc2c(s1)Nc1ccccc1N=C2N1CCN(C)CC1", "note": "[olanzapine]", "values": [{"measurement": "effect on weight gain", "setting": "[7]", "result": "protective effect against weight-gain"}]}
{"smiles": "Cc1cc(C(C)(C)C)c(O)c(C)c1CC1=NCCN1", "note": "[oxymetazoline]", "values": [{"measurement": "rank order of potency for agonists", "setting": "[1]", "result": "oxymetazoline>clonidine>epinephrine>norepinephrine>phenylephrine>dopamine>p-synephrine>p-tyramine>serotonin=p-octopamine"}]}
{"smiles": "NCC(O)c1ccc(O)cc1", "note": "(stereo not shown) [p-octopamine]", "values": [{"measurement": "rank order of potency for agonists", "setting": "[1]", "result": "oxymetazoline>clonidine>epinephrine>norepinephrine>phenylephrine>dopamine>p-synephrine>p-tyramine>serotonin=p-octopamine"}]}
{"smiles": "CNCC(O)c1ccc(O)cc1", "note": "(stereo not shown) [p-synephrine]", "values": [{"measurement": "rank order of potency for agonists", "setting": "[1]", "result": "oxymetazoline>clonidine>epinephrine>norepinephrine>phenylephrine>dopamine>p-synephrine>p-tyramine>serotonin=p-octopamine"}]}
{"smiles": "NCCc1ccc(O)cc1", "note": "[p-tyramine]", "values": [{"measurement": "rank order of potency for agonists", "setting": "[1]", "result": "oxymetazoline>clonidine>epinephrine>norepinephrine>phenylephrine>dopamine>p-synephrine>p-tyramine>serotonin=p-octopamine"}]}
{"smiles": "Fc1ccc([C@@H]2CCNC[C@H]2COc2ccc3c(c2)OCO3)cc1", "note": "[paroxetine]", "values": [{"measurement": "P-gp substrate property", "setting": "[2]", "result": "substrates of P-gp"}, {"measurement": "response to paroxetine", "setting": "[8]", "result": "poor response"}]}
{"smiles": "Cc1ccc(N(CC2=NCCN2)c2cccc(O)c2)cc1", "note": "[phentolamine]", "values": [{"measurement": "rank order for antagonists", "setting": "[1]", "result": "yohimbine>phentolamine=mianserine>chlorpromazine=spiperone=prazosin>propanolol>alprenolol=pindolol"}]}
{"smiles": "CC(C)NCC(O)COc1cccc2[nH]ccc12", "note": "(stereo not shown) [pindolol]", "values": [{"measurement": "rank order for antagonists", "setting": "[1]", "result": "yohimbine>phentolamine=mianserine>chlorpromazine=spiperone=prazosin>propanolol>alprenolol=pindolol"}]}
{"smiles": "Cc1nc2n(c(=O)c1CCN1CCC(c3noc4cc(F)ccc34)CC1)CCCC2", "note": "[risperidone]", "values": [{"measurement": "AUC of risperidone", "setting": "3435TT versus 3435CC subjects who were CYP2D6*10/*10, P=0.001", "result": "higher"}, {"measurement": "metabolic ratios of risperidone", "setting": "3435TT versus 3435CC with CYP2D6*10/*10, P=0.006", "result": "higher"}, {"measurement": "AUC of risperidone", "setting": "between ABCB1 3435C>T genotypes, healthy subjects (n=72), 2 mg", "result": "no significant differences"}, {"measurement": "response to risperidone", "setting": "[9]", "result": "better response"}]}
{"smiles": "NCCc1c[nH]c2ccc(O)cc12", "note": "[serotonin]", "values": [{"measurement": "rank order of potency for agonists", "setting": "[1]", "result": "oxymetazoline>clonidine>epinephrine>norepinephrine>phenylephrine>dopamine>p-synephrine>p-tyramine>serotonin=p-octopamine"}]}
{"smiles": "O=C(CCCN1CCC2(CC1)C(=O)NCN2c1ccccc1)c1ccc(F)cc1", "note": "[spiperone]", "values": [{"measurement": "rank order for antagonists", "setting": "[1]", "result": "yohimbine>phentolamine=mianserine>chlorpromazine=spiperone=prazosin>propanolol>alprenolol=pindolol"}]}
{"smiles": "COc1ccc(C(CN(C)C)C2(O)CCCCC2)cc1", "note": "(stereo not shown) [venlafaxine XR]", "values": [{"measurement": "treatment outcome over time", "setting": "[10]", "result": "better treatment outcome"}]}
{"smiles": "COc1ccc(C(CN(C)C)C2(O)CCCCC2)cc1", "note": "(stereo not shown) [venlafaxine]", "values": [{"measurement": "P-gp substrate property", "setting": "[2]", "result": "substrates of P-gp"}]}
{"smiles": "COC(=O)[C@@H]1[C@H]2C[C@H]3c4[nH]c5ccccc5c4CCN3C[C@@H]2CC[C@@H]1O", "note": "[yohimbine]", "values": [{"measurement": "rank order for antagonists", "setting": "[1]", "result": "yohimbine>phentolamine=mianserine>chlorpromazine=spiperone=prazosin>propanolol>alprenolol=pindolol"}]}
